Assay results from patent US5385842A, “Anthraquinones as inhibitors of sulfide production from sulfate-reducing bacteria” (E. I. Du Pont de Nemours and Company, priority 1993, dated 1995).
Counter-ions that a name gives are not always drawn.

system: Desulfovibrio desulfuricans G100A; assay: microbe, parasite or virus in culture; assay type: cell-based; details: not given

| Compound | inhibition of sulfide production (in words) |
| --- | --- |
| Nc1cccc2c1C(=O)c1ccccc1C2=O [1-Aminoanthraquinone] | inhibited sulfide formation |

same assay, conditions: 10 ppm

| Compound | % Inhib. (inhibition of sulfide production) |
| --- | --- |
| 1,1'-Iminobis[4-amino]9,10-anthracenedione, sulfonated [Acid black 48] | 13.8% |
| 1-Amino-4[4-[[4-chloro-6-[2,3 or 4-sulfophenyl]-amino]-1,3,5-triazin-2-yl]amino]-3-sulfophenyl]-amino]-9,10-dihyro-9,10-dioxo-2-anthracenesulfonic acid [Reactive blue 2] | 17.5% |

same assay, conditions: Desulfovibrio desulfuricans, G100A, read-out: % Inhib. (inhibition of sulfide production)

| Compound | inhibition at 10 ppm | inhibition at 30 ppm | inhibition at 10 µg/mL |
| --- | --- | --- | --- |
| CC(=O)OC1C=CCC2C(=O)c3cccc(O)c3C(=O)C12 (racemic) [(+,-)-1-Acetoxy-8-hydroxy-1,4,4a,9a-tetrahydroanthraquinone] | 28.1% | – | – |
| O=C1c2ccccc2C(=O)c2c1cccc2-c1cccc2c1C(=O)c1ccccc1C2=O [1,1'-Bianthraquinone, [1,1'-Bianthracene]-9,9'10,10'-tetrone] | – | 12.9% | – |
| O=C1c2ccccc2C(=O)c2c([N+](=O)[O-])ccc(Nc3ccc([N+](=O)[O-])c4c3C(=O)c3ccccc3C4=O)c21 [1,1'-Iminobis(4-nitro-9,10-anthracenedione)] | – | 5.7% | – |
| Nc1ccc2c(c1N)C(=O)c1ccccc1C2=O [1,2-Diaminoanthraquinone] | 28.9% | – | – |
| O=C1c2ccccc2C(=O)C2CC=CCC12 (stereo not drawn) [1,4,4a,9a-Tetrahydroanthraquinone] | 0 to 7% | – | – |
| O=C1c2c(Cl)ccc(Cl)c2C(=O)c2c(Cl)ccc(Cl)c21 [1,4,5,8-Tetrachloroanthraquinone] | – | 50.6% | – |
| CNc1ccc(NC)c2c1C(=O)c1ccccc1C2=O [1,4-Bis(methylamino)-anthraquinone] | – | 8.6% | – |
| CCc1cc(CC)c(Nc2ccc(Nc3c(CC)cc(CC)cc3CC)c3c2C(=O)c2ccccc2C3=O)c(CC)c1 [1,4-Bis[(2,4,6-triethylphenyl)amino]-9,10-anthracenedione] | – | 4.3% | – |
| CC(C)Nc1ccc(NC(C)C)c2c1C(=O)c1ccccc1C2=O [1,4-Di(isopropylamino)anthraquinone, 1,4-Bis[(1-methylethyl)amino]-9,10-anthracenedione] | – | 5% | – |
| Nc1c(OCCOc2ccccc2)c(OCCOc2ccccc2)c(N)c2c1C(=O)c1ccccc1C2=O [1,4-Diamino-2,3-bis(2-phenoxyethoxy)anthraquinone] | – | 7.8% | – |
| Nc1ccc(N)c2c1C(=O)c1cccc([N+](=O)[O-])c1C2=O [1,4-Diamino-5-nitroanthraquinone] | – | 2.7 to 3% | – |
| Nc1ccc(N)c2c1C(=O)c1ccccc1C2=O [1,4-Diaminoanthraquinone] | 27.5% | – | – |
| O=C1c2ccccc2C(=O)c2c(O)ccc(O)c21 [1,4-Dihydroxyanthraquinone] | – | 5.2% | – |
| Cc1ccc(C)c2c1C(=O)c1ccccc1C2=O [1,4-Dimethylanthraquinone] | – | 5.2% | – |
| Nc1ccc(O)c2c1C(=O)c1c(O)ccc(N)c1C2=O [1,5-Diamino-4,8-dihydroxyanthraquinone] | – | 2.6% | – |
| O=C(Nc1cccc2c1C(=O)c1cccc(NC(=O)c3ccccc3)c1C2=O)c1ccccc1 [1,5-Dibenzamidoanthraquinone, N,N'-(9,10-Dihydro-9,10-dioxo-1,5-anthracenediyl)-bisbenzamide] | – | 0% | – |
| O=C1c2cccc(Cl)c2C(=O)c2cccc(Cl)c21 [1,5-Dichloroanthraquinone] | – | 100% | – |
| O=C1c2cccc(O)c2C(=O)c2cccc(O)c21 [1,5-Dihydroxyanthraquinone] | 31% | – | – |
| O=C1c2cccc(OCc3ccccc3)c2C(=O)c2c(OCc3ccccc3)cccc21 [1,8-Dibenzyloxyanthraquinone, 1,8-Bis(phenylmethoxy)-9,10-anthracenedione] | – | 4.5% | – |
| O=C1c2cccc(Cl)c2C(=O)c2c(Cl)cccc21 [1,8-Dichloroanthraquinone] | – | 3.9% | – |

| Compound | inhibition at 10 ppm | inhibition at 30 ppm | inhibition at 10 µg/mL |
| --- | --- | --- | --- |
| Oc1cccc2cc3cccc(O)c3c(O)c12 [1,8-Dihydroxyanthranol, 1,8-Dihydroxy-9-anthranol] | – | 88.3% | – |
| O=C1c2ccccc2C(=O)c2c1cccc2N(NS(=O)(=O)O)S(=O)(=O)O [1-(9,10-Dihydro-9,10-dioxo-1-anthracenyl)-1,2-hydrazinedisulfonic acid, di Na salt] | 10% | – | – |
| O=C1c2ccccc2C(=O)c2c(SBr)cccc21 [1-(Bromothio)anthraquinone] | – | 6.5% | – |
| CNc1cccc2c1C(=O)c1ccccc1C2=O [1-(Methylamino)anthraquinone] | – | – | 19.1% |
| Nc1c(Br)cc(Br)c2c1C(=O)c1ccccc1C2=O [1-Amino-2,4-dibromoanthraquinone] | 44.6% | – | – |
| NCCSc1cc(O)c2c(c1N)C(=O)c1ccccc1C2=O [1-Amino-2-(2-aminoethylthio)-4-hydroxyanthraquinone] | – | 24.7% | – |
| Nc1c(Br)cc(O)c2c1C(=O)c1ccccc1C2=O [1-Amino-2-bromo-4-hydroxyanthraquinone] | – | 6.5% | – |
| CNc1ccc(N)c2c1C(=O)c1ccccc1C2=O [1-Amino-4-(methylamino)anthraquinone] | – | 0% | – |
| Nc1ccc(NC(=O)c2ccccc2)c2c1C(=O)c1ccccc1C2=O [1-Amino-4-benzamidoanthraquinone, N-(4-Amino-9,10-dihydro-9,10-dioxo-1-anthracenyl)-benzamide] | – | 0% | – |
| Cc1cc(Br)c2c(c1N)C(=O)c1ccccc1C2=O [1-Amino-4-bromo-2-methylanthraquinone] | – | – | 8% |
| Nc1c(S(=O)(=O)O)cc(Br)c2c1C(=O)c1ccccc1C2=O [1-Amino-4-bromo-9,10-dihydro-9,10-dioxo-2-anthracene-sulfonic acid, Na salt] | 4.3% | – | – |
| Cc1cc(Cl)c2c(c1N)C(=O)c1ccccc1C2=O [1-Amino-4-chloro-2-methylanthraquinone] | – | 5.2% | – |
| COc1ccc(N)c2c1C(=O)c1ccccc1C2=O [1-Amino-4-methoxyanthraquinone] | 57.1% | – | – |
| Nc1cccc2c1C(=O)c1cc(Cl)c(Cl)cc1C2=O [1-Amino-6,7-dichloroanthraquinone] | – | 22.9% | – |
| Cc1ccc(S(=O)(=O)Nc2cc(S(=O)(=O)O)c(N)c3c2C(=O)c2ccccc2C3=O)cc1 [1-Amino-9,10-dihydro-4[[(4-methylphenyl)sulfonyl]-amino]-9,10-dioxo-2-anthracenesulfonic acid, Na salt] | 3.9% | – | – |
| N#[N+]c1cccc2c1C(=O)c1ccccc1C2=O [1-Aminoanthraquinone diazonium salt] | – | 20.8% | – |
| Nc1c(S(=O)(=O)O)ccc2c1C(=O)c1ccccc1C2=O [1-Aminoanthraquinone-2-sulfonic acid, 1-Amino-9,10-dihydro-9,10-dioxo-2-anthracenesulfonic acid] | – | 37.5% | – |
| Nc1cccc2c1C(=O)c1ccccc1C2=O [1-Aminoanthraquinone] | 28.4% | – | – |
| O=C1c2ccccc2C(=O)c2c1cccc2S(=O)(=O)O [1-Anthraquinonesulfonic acid, Na salt] | – | 3.9% | – |
| O=C(Nc1ccc(Cl)c2c1C(=O)c1ccccc1C2=O)c1ccccc1 [1-Benzamido-4-chloroanthraquinone, N-(4-Chloro-9,10-dihydro-9,10-dioxo-1-anthracenyl)-benzamide] | – | 8.6% | – |

| Compound | inhibition at 10 ppm | inhibition at 30 ppm | inhibition at 10 µg/mL |
| --- | --- | --- | --- |
| O=C(Nc1cccc2c1C(=O)c1cccc(Cl)c1C2=O)c1ccccc1 [1-Benzamido-5-chloroanthraquinone, N-(5-Chloro-9,10-dihydro-9,10-dioxo-1-anthracenyl)-benzamide] | – | 10.4% | – |
| CNc1ccc(Br)c2c1C(=O)c1ccccc1C2=O [1-Bromo-4-(methylamino)anthraquinone] | – | 0% | – |
| Cc1ccc(Nc2ccc(O)c3c2C(=O)c2ccccc2C3=O)cc1 [1-Hydroxy-4-(p-toluidino)-anthraquinone, 1-Hydroxy-4-[(4-methylphenyl)amino]-9,10-anthracene-dione] | – | 3.9% | – |
| O=C1c2ccccc2C(=O)c2c(O)cccc21 [1-Hydroxyanthraquinone] | 59.3% | – | – |
| Cc1ccc2c(c1-c1c(C)ccc3c1C(=O)c1ccccc1C3=O)C(=O)c1ccccc1C2=O [2,2'-Dimethyl-1,1'-bianthraquinone, 2,2'-Dimethyl-[1,1'-bianthracene]-9,9',10,10'-tetrone] | – | 59.7% | – |
| Cc1c(C)c(O)c2c(c1O)C(=O)c1ccccc1C2=O [2,3-dimethyl-1,4-dihydroxyanthraquinone] | – | 5.7% | – |
| O=C1c2c(Br)cc(Br)c(O)c2C(=O)c2c(O)c(Br)cc(Br)c21 [2,4,5,7-Tetrabromochrysazin, 2,4,5,7-Tetrabromo-1,8-dihydroxy-9,10-anthracenedione] | 40.6% | – | – |
| Nc1ccc2c(c1)C(=O)c1ccc(N)cc1C2=O [2,6-Diaminoanthraquinone] | 27.2% | – | – |
| O=C1c2ccc(O)cc2C(=O)c2ccc(O)cc21 [2,6-Dihydroxyanthraquinone] | 28.2% | – | – |
| CC(C)(C)C(=O)Nc1ccc2c(c1)C(=O)c1ccccc1C2=O [2-(2,2,2-Trimethylpropionamido)anthraquinone] | – | 48.1% | – |
| O=C1c2ccccc2C(=O)c2cc(NC(=O)C3CC3)ccc21 [2-(Cyclopropylcarboxamido)anthraquinone] | – | 2.6% | – |
| O=C1c2ccccc2C(=O)c2cc(CO)ccc21 [2-(Hydroxymethyl)anthraquinone] | – | 87% | – |
| Nc1cc2c(cc1Cl)C(=O)c1ccccc1C2=O [2-Amino-3-chloroanthraquinone] | – | 3.9% | – |
| Nc1cc2c(cc1O)C(=O)c1ccccc1C2=O [2-Amino-3-hydroxyanthraquinone] | – | 11.4% | – |
| Nc1ccc2c(c1)C(=O)c1ccccc1C2=O [2-Aminoanthraquinone] | 30.4% | – | – |
| Cc1cc2c(cc1Br)C(=O)c1ccccc1C2=O [2-Bromo-3-methylanthraquinone] | – | 26% | – |
| O=C1c2ccccc2C(=O)c2cc(Cl)ccc21 [2-Chloroanthraquinone] | – | 98.7% | – |
| CCc1ccc2c(c1)C(=O)c1ccccc1C2=O [2-Ethylanthraquinone] | – | – | 57.1% |
| COc1cc2c(cc1C)C(=O)c1ccccc1C2=O [2-Methoxy-3-methyl-9,10-anthracenedione] | – | 5% | – |

same assay, conditions: Table III, Example 3

| Compound | % inhibition of sulfide formation |
| --- | --- |
| Nc1cccc2c1C(=O)c1ccccc1C2=O [1-Aminoanthraquinone] | 72% |
